Laboratory results taken from patent US20050239656A1, “Pyridine compounds or salts thereof and herbicides containing the same” (priority 2002, published 2005).

What follows are compounds tested on barnyardgrass (assay: Test Example 1: foliage treatment, upland pot test). Conditions: active ingredient 500 g/ha, observed 18th to 23rd day, 0 = non-treated, 100 = complete kill.
Type: in vivo, Echinochloa crus-galli L.
In short: (§1)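 Visual growth-control score, 0% (like untreated) to 100% (complete kill), taken on days 18 to 23 after foliar spraying. Leaf stage at treatment: barnyardgrass 1.3–2.8, rice 1.2–2.6, wheat 1.3–2.4, soybean 0.1–0.4. Spray: wettable powder or EC in 500 L/ha water, 0.1% v/v spreader added.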

| Structure (SMILES) | Growth controlling degree (%) Barnyardgrass [%] |
| --- | --- |
| CC(C)C(c1cnccc1C(F)(F)F)N(C)C(=O)Cc1c(F)cccc1Cl (stereo not shown) [I-33] | 20 |

Each compound was assayed on crabgrass (assay: Test Example 1: foliage treatment, upland pot test). Conditions: active ingredient 500 g/ha, observed 18th to 23rd day, 0 = non-treated, 100 = complete kill.
Type: in vivo, Digitaria sanguinalis L.

| Structure (SMILES) | Growth controlling degree (%) Crabgrass [%] |
| --- | --- |
| CC(C)C(c1cnccc1C(F)(F)F)N(C)C(=O)Cc1c(F)cccc1Cl (stereo not shown) [I-33] | 80 |

Each compound was assayed on green foxtail (assay: Test Example 1: foliage treatment, upland pot test). Conditions: active ingredient 500 g/ha, observed 18th to 23rd day, 0 = non-treated, 100 = complete kill.
Type: in vivo, Setaria viridis L.

| Structure (SMILES) | Growth controlling degree (%) Green foxtail [%] |
| --- | --- |
| CC(C)C(c1cnccc1C(F)(F)F)N(C)C(=O)Cc1c(F)cccc1Cl (stereo not shown) [I-33] | 70 |

Each compound was assayed on redroot pigweed (assay: Test Example 1: foliage treatment, upland pot test). Conditions: active ingredient 500 g/ha, observed 18th to 23rd day, 0 = non-treated, 100 = complete kill.
Type: in vivo, Amaranthus retroflexus L.

| Structure (SMILES) | Growth controlling degree (%) Redroot pigweed [%] |
| --- | --- |
| CC(C)C(c1cnccc1C(F)(F)F)N(C)C(=O)Cc1c(F)cccc1Cl (stereo not shown) [I-33] | 60 |

The compounds below were run on prickly sida (assay: Test Example 1: foliage treatment, upland pot test). Conditions: active ingredient 500 g/ha, observed 18th to 23rd day, 0 = non-treated, 100 = complete kill.
Type: in vivo, Sida spinosa L.

| Structure (SMILES) | Growth controlling degree (%) Prickly sida [%] |
| --- | --- |
| CC(C)C(c1cnccc1C(F)(F)F)N(C)C(=O)Cc1c(F)cccc1Cl (stereo not shown) [I-33] | 70 |

What follows are compounds tested on velvetleaf (assay: Test Example 1: foliage treatment, upland pot test). Conditions: active ingredient 500 g/ha, observed 18th to 23rd day, 0 = non-treated, 100 = complete kill.
Type: in vivo, Abutilon theophrasti MEDIC.

| Structure (SMILES) | Growth controlling degree (%) Velvetleaf [%] |
| --- | --- |
| CC(C)C(c1cnccc1C(F)(F)F)N(C)C(=O)Cc1c(F)cccc1Cl (stereo not shown) [I-33] | 80 |

These compounds were tested on rice (assay: Test Example 1: foliage treatment, upland pot test). Conditions: crop, active ingredient 500 g/ha, observed 18th to 23rd day, 0 = non-treated, 100 = complete kill.
Type: in vivo, Oryza sativa L.
In short: as §1

| Structure (SMILES) | Growth controlling degree (%) Rice [%] |
| --- | --- |
| CC(C)C(c1cnccc1C(F)(F)F)N(C)C(=O)Cc1c(F)cccc1Cl (stereo not shown) [I-33] | 30 |

Each compound was assayed on corn (assay: Test Example 1: foliage treatment, upland pot test). Conditions: crop, active ingredient 500 g/ha, observed 18th to 23rd day, 0 = non-treated, 100 = complete kill.
Type: in vivo, Zea mays L.
In short: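 Corn seeds were sown in upland field soil held in a 1/170,000 ha pot and grown to the 2.1 to 3.2 leaf stage. A wettable powder or emulsifiable concentrate of the test compound was diluted with water at 500 L/ha, given 0.1% (v/v) agricultural spreader, and sprayed onto the foliage with a small sprayer. Growth controlling degree (%) was scored visually 18th to 23rd days later, from 0 (non-treated) to 100 (complete kill).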

| Structure (SMILES) | Growth controlling degree (%) Corn [%] |
| --- | --- |
| CC(C)C(c1cnccc1C(F)(F)F)N(C)C(=O)Cc1c(F)cccc1Cl (stereo not shown) [I-33] | 0 |

Each compound was assayed on soybean (assay: Test Example 1: foliage treatment, upland pot test). Conditions: crop, active ingredient 500 g/ha, observed 18th to 23rd day, 0 = non-treated, 100 = complete kill.
Type: in vivo, Glycine max Merr.
In short: as §1

| Structure (SMILES) | Growth controlling degree (%) Soybean [%] |
| --- | --- |
| CC(C)C(c1cnccc1C(F)(F)F)N(C)C(=O)Cc1c(F)cccc1Cl (stereo not shown) [I-33] | 40 |

These compounds were tested on barnyardgrass (assay: Test Example 2: soil surface treatment, upland pot test). Conditions: active ingredient 500 g/ha, observed 20th to 28th day.
Type: in vivo, Echinochloa crus-galli L.
In short: (§2)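 Seeds were sown in upland field soil in 1/170,000 ha pots. One day later, a wettable powder or emulsifiable concentrate at a predetermined active-ingredient rate, diluted in water at 1,500 L/ha, was sprayed onto the soil surface. Growth control (%) was scored visually 20–28 days after application (0 = untreated, 100 = complete kill).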

| Structure (SMILES) | Growth controlling degree (%) Barnyardgrass [%] |
| --- | --- |
| CC(C)C(c1cnccc1C(F)(F)F)N(C)C(=O)Cc1c(F)cccc1Cl (stereo not shown) [I-33] | 100 |

These compounds were tested on crabgrass in the same assay as above. Conditions: active ingredient 500 g/ha, observed 20th to 28th day.
Type: in vivo, Digitaria sanguinalis L.
In short: as §2

| Structure (SMILES) | Growth controlling degree (%) Crabgrass [%] |
| --- | --- |
| CC(C)C(c1cnccc1C(F)(F)F)N(C)C(=O)Cc1c(F)cccc1Cl (stereo not shown) [I-33] | 100 |

The compounds below were run on green foxtail in the same assay as above. Conditions: active ingredient 500 g/ha, observed 20th to 28th day.
Type: in vivo, Setaria viridis L.
In short: as §2

| Structure (SMILES) | Growth controlling degree (%) Green foxtail [%] |
| --- | --- |
| CC(C)C(c1cnccc1C(F)(F)F)N(C)C(=O)Cc1c(F)cccc1Cl (stereo not shown) [I-33] | 90 |

The compounds below were run on redroot pigweed in the same assay as above. Conditions: active ingredient 500 g/ha, observed 20th to 28th day.
Type: in vivo, Amaranthus retroflexus L.
In short: as §2

| Structure (SMILES) | Growth controlling degree (%) Redroot pigweed [%] |
| --- | --- |
| CC(C)C(c1cnccc1C(F)(F)F)N(C)C(=O)Cc1c(F)cccc1Cl (stereo not shown) [I-33] | 80 |

Each compound was assayed on prickly sida in the same assay as above. Conditions: active ingredient 500 g/ha, observed 20th to 28th day.
Type: in vivo, Sida spinosa L.
In short: as §2

| Structure (SMILES) | Growth controlling degree (%) Prickly sida [%] |
| --- | --- |
| CC(C)C(c1cnccc1C(F)(F)F)N(C)C(=O)Cc1c(F)cccc1Cl (stereo not shown) [I-33] | 80 |

The compounds below were run on velvetleaf in the same assay as above. Conditions: active ingredient 500 g/ha, observed 20th to 28th day.
Type: in vivo, Abutilon theophrasti MEDIC.
In short: as §2

| Structure (SMILES) | Growth controlling degree (%) Velvetleaf [%] |
| --- | --- |
| CC(C)C(c1cnccc1C(F)(F)F)N(C)C(=O)Cc1c(F)cccc1Cl (stereo not shown) [I-33] | 90 |

These compounds were tested on rice in the same assay as above. Conditions: active ingredient 500 g/ha, observed 20th to 28th day.
Type: in vivo, Oryza sativa L.
In short: as §2

| Structure (SMILES) | Growth controlling degree (%) Rice [%] |
| --- | --- |
| CC(C)C(c1cnccc1C(F)(F)F)N(C)C(=O)Cc1c(F)cccc1Cl (stereo not shown) [I-33] | 10 |

The compounds below were run on corn in the same assay as above. Conditions: active ingredient 500 g/ha, observed 20th to 28th day.
Type: in vivo, Zea mays L.
In short: as §2

| Structure (SMILES) | Growth controlling degree (%) Corn [%] |
| --- | --- |
| CC(C)C(c1cnccc1C(F)(F)F)N(C)C(=O)Cc1c(F)cccc1Cl (stereo not shown) [I-33] | 30 |

Each compound was assayed on soybean in the same assay as above. Conditions: active ingredient 500 g/ha, observed 20th to 28th day.
Type: in vivo, Glycine max Merr.
In short: as §2

| Structure (SMILES) | Growth controlling degree (%) Soyabean [%] |
| --- | --- |
| CC(C)C(c1cnccc1C(F)(F)F)N(C)C(=O)Cc1c(F)cccc1Cl (stereo not shown) [I-33] | 0 |

The compounds below were run on barnyardgrass (assay: Test Example 3: paddy pot test, application under submerged conditions). Conditions: active ingredient 250 g/ha; submerged application at 0.5 leaf stage; visually observed 14 days after application; 0 = non-treated, 100 = complete kill.
Type: in vivo, Echinochloa crus-galli L.
In short: (§3)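 Barnyardgrass and japanese bulrush sown in flooded paddy soil in greenhouse pots, japanese ribbon wapato tubers planted 1–2 days later; water depth kept at 3–4 cm. Diluted wettable powder or emulsifiable concentrate applied into water at 0.5-leaf or primary-leaf stage at set active-ingredient doses. Growth control scored visually at 14 days, 0 (untreated) to 100% (complete kill).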

| Structure (SMILES) | Growth controlling degree (%) Barnyardgrass [%] |
| --- | --- |
| CC(C)C(c1cnccc1C(F)(F)F)N(C)C(=O)Cc1c(F)cccc1Cl (stereo not shown) [I-33] | 100 |

The compounds below were run on japanese bulrush in the same assay as above. Conditions: active ingredient 250 g/ha; submerged application at 0.5 leaf stage; visually observed 14 days after application; 0 = non-treated, 100 = complete kill.
Type: in vivo, Scirpus juncoides
In short: as §3

| Structure (SMILES) | Growth controlling degree (%) Japanese bulrush [%] |
| --- | --- |
| CC(C)C(c1cnccc1C(F)(F)F)N(C)C(=O)Cc1c(F)cccc1Cl (stereo not shown) [I-33] | 85 |

Each compound was assayed on japanese ribbon wapato in the same assay as above. Conditions: active ingredient 250 g/ha; submerged application at primary leaf stage; visually observed 14 days after application; 0 = non-treated, 100 = complete kill.
Type: in vivo, Sagittaria pygniaea
In short: as §3

| Structure (SMILES) | Growth controlling degree (%) Japanese ribbon wapato [%] |
| --- | --- |
| CC(C)C(c1cnccc1C(F)(F)F)N(C)C(=O)Cc1c(F)cccc1Cl (stereo not shown) [I-33] | 90 |

The compounds below were run on rice (var. Nihonbare) (assay: Test Example 3: paddy pot test, transplanted rice). Conditions: active ingredient 250 g/ha, applied 4th day after transplantation, visually observed 21st day after application, 0 = non-treated, 100 = complete kill.
Type: in vivo, Oryza sativa L.
In short: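 Rice (var. Nihonbare) at 2 leaf stage transplanted 3 cm deep into puddled paddy soil under 3–4 cm flooding; on day 4 after transplanting, diluted wettable powder or emulsifiable concentrate applied by pipette under submerged conditions at a set active-ingredient dose. Growth scored visually 21 days after application, 0 (untreated) to 100 (complete kill) %.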

| Structure (SMILES) | Growth controlling degree (%) Rice [%] |
| --- | --- |
| CC(C)C(c1cnccc1C(F)(F)F)N(C)C(=O)Cc1c(F)cccc1Cl (stereo not shown) [I-33] | 10 |
